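Values below derive from 48-hour exposures of cells grown in 96-well plates, with endpoints linearly interpolated between the two concentrations bracketing the appropriate inhibition level. The concentration for full growth arrest is given as TGI.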
Assays:
Test in all cases: inhibition of tumour cell growth, NCI panel, 48 h
[1] = test system: LOX IMVI melanoma
[2] = test system: SK-MEL-5 melanoma
[3] = test system: SN12C renal
[4] = test system: HOP-62 NSCLC
[5] = test system: IGROV1 ovarian
[6] = test system: NCI/ADR-RES ovarian
[7] = test system: UACC-257 melanoma
[8] = test system: CAKI-1 renal
[9] = test system: UACC-62 melanoma
[10] = test system: OVCAR-3 ovarian
[11] = test system: M14 melanoma
[12] = test system: NCI-H226 lung
[13] = test system: U251 CNS
[14] = test system: SF-268 CNS
[15] = test system: COLO 205 colon
[16] = test system: SNB-75 CNS
[17] = test system: MDA-MB-231 breast
[18] = test system: KM12 colon
[19] = test system: HCC-2998 colon
[20] = test system: SR leukemia

| Compound | TGI [1] | TGI [2] | TGI [3] | TGI [4] | TGI [5] | TGI [6] | TGI [7] | TGI [8] | TGI [9] | TGI [10] | TGI [11] | TGI [12] | TGI [13] | TGI [14] | TGI [15] | TGI [16] | TGI [17] | TGI [18] | TGI [19] | TGI [20] |
| --- | --- | --- | --- | --- | --- | --- | --- | --- | --- | --- | --- | --- | --- | --- | --- | --- | --- | --- | --- | --- |
| CN(C)C=Nc1c2ccccc2nc2ccccc12 | 7.13 µM | 12.5 µM | 11.9 µM | 25.4 µM | 26.3 µM | 34.6 µM | 9.3 µM | > 100 µM | 7.65 µM | 13.4 µM | 16.2 µM | 9.06 µM | 15 µM | 13.1 µM | 8.87 µM | 13.6 µM | 21.5 µM |  |  |  |
| CC(C)CCNC(=O)C(CC(C)C)NC(=O)[C@H]1O[C@@H]1C(=O)O (stereo partly drawn) |  | > 100 µM | > 100 µM | > 100 µM | > 100 µM | > 100 µM | > 100 µM | > 100 µM | > 100 µM | > 100 µM | > 100 µM | > 100 µM | > 100 µM | > 100 µM | > 100 µM | > 100 µM | > 100 µM | > 100 µM | > 100 µM |  |
| C/C(N)=C/C(=O)c1[nH]c(C(=O)O)cc1C1CCN(Cc2ccccc2)C1=O (stereo not drawn) |  | 33.8 µM |  | 42.8 µM | 94.1 µM | 51.6 µM | 78.5 µM | > 100 µM | 55.6 µM | 55.6 µM | 39 µM |  | > 100 µM | 60.8 µM | 65.1 µM | 88.4 µM | > 100 µM | > 100 µM | > 100 µM |  |
| COc1cc2cc(C(=O)N3CC(CCl)c4ccc([N+](=O)[O-])cc43)[nH]c2c(OC)c1OC (stereo not drawn) | > 100 µM | > 100 µM | > 100 µM | > 100 µM | > 100 µM | > 100 µM | > 100 µM | > 100 µM | > 100 µM | > 100 µM | > 100 µM |  | > 100 µM | > 100 µM | > 100 µM | > 100 µM | > 100 µM | > 100 µM | > 100 µM |  |
| CN(C)Cc1cc(C(=O)/C=C/c2ccc(Cl)c(Cl)c2)cc(CN(C)C)c1O | 2 µM | 3.37 µM | 7.83 µM | 6.45 µM | 12.4 µM | 7.85 µM | 5.1 µM | 4.08 µM |  | 5.46 µM | 4.34 µM | 13.5 µM | 13.6 µM | 13.2 µM | 2.65 µM |  | 14.3 µM | 4.73 µM | 12.5 µM |  |
| CC(=O)Nc1ccc(-c2nnc(SCC(=O)Nc3cccc(Cl)c3)o2)cc1 | 26.8 µM | 29.1 µM | 31.6 µM | 36.2 µM | 32.5 µM |  | 43.6 µM | 33.2 µM | 33.9 µM | 22.1 µM | 29.5 µM | 48.8 µM | 23.2 µM | 37.8 µM | 31 µM | 71.9 µM |  | 30.8 µM | 37.6 µM |  |
| CCOc1cn(C2OC(CO)C(O)C2O)c(=O)[nH]c1=O (stereo not drawn) | > 100 µM | > 100 µM | > 100 µM | > 100 µM | > 100 µM |  | > 100 µM | > 100 µM | > 100 µM | > 100 µM | > 100 µM | > 100 µM | 43.7 µM | > 100 µM | > 100 µM | > 100 µM |  | > 100 µM | > 100 µM |  |
| CC(=O)c1cc2c(s1)C(=O)c1sccc1C2=O | 0.0249 µM | 0.0216 µM | 0.0294 µM | 0.0854 µM | 0.337 µM | 0.309 µM | 0.0289 µM | 0.413 µM | 0.0898 µM | 0.0382 µM |  | 0.407 µM | 0.0556 µM | 0.0889 µM | 2.63 µM | 0.0491 µM | 0.151 µM | 0.332 µM | 0.392 µM |  |
| COc1ccc(C(=O)c2c3cc(OC)c(OC)c(OC)c3cc[n+]2C)cc1 |  | 35.1 µM | > 100 µM | > 100 µM | > 100 µM |  |  |  |  |  | > 100 µM | 65.2 µM | > 100 µM | > 100 µM |  | 95.7 µM |  | > 100 µM | 98.8 µM | > 100 µM |
| COc1cc(CC2c3cc(OC)c(OC)cc3CCN2C)ccc1O (stereo not drawn) |  | > 100 µM | > 100 µM | > 100 µM |  |  | > 100 µM | > 100 µM |  | > 100 µM | > 100 µM |  | > 100 µM | > 100 µM |  | > 100 µM |  | > 100 µM | > 100 µM |  |
| Cc1ccc(Cc2nn(C)c(=O)n2N)cc1 | > 100 µM | > 100 µM | > 100 µM |  | > 100 µM | > 100 µM | > 100 µM | > 100 µM | > 100 µM | > 100 µM | > 100 µM | > 100 µM | > 100 µM |  | > 100 µM |  | > 100 µM | > 100 µM | > 100 µM |  |
| CCOC(=O)C1(C/C=C/CCl)CCCC1=O (stereo not drawn) | 30.4 µM | 33.9 µM | 59.1 µM | 45.1 µM | 42 µM | 37.2 µM | > 100 µM | 79.5 µM | 30.2 µM |  | 38.5 µM | 36.2 µM | 86.7 µM | 68.1 µM | 72.9 µM | 61.8 µM | 42.5 µM | 41.2 µM |  |  |
| O=C(NCCC1CN(C(=O)OCc2ccccc2)c2ccccc21)OCc1ccccc1 (stereo not drawn) |  | > 100 µM |  | > 100 µM | > 100 µM | > 100 µM | > 100 µM | > 100 µM | > 100 µM | > 100 µM | > 100 µM |  | > 100 µM | > 100 µM | > 100 µM | > 100 µM | > 100 µM | > 100 µM | > 100 µM |  |
| CC(=O)Nc1ccc(C(=O)NN2C(=O)CSC2c2ccc(O)cc2)cc1 (stereo not drawn) |  | > 100 µM | > 100 µM | > 100 µM | > 100 µM | > 100 µM | > 100 µM |  | > 100 µM | > 100 µM | > 100 µM | > 100 µM | > 100 µM | > 100 µM | > 100 µM | > 100 µM | > 100 µM | > 100 µM | > 100 µM |  |

— PubChem BioAssay (NCI)
